From paper PMC6458995, “MAP4K4 Inhibition Promotes Survival of Human Stem Cell-Derived Cardiomyocytes and Reduces Infarct Size In Vivo” (Cell Stem Cell, 2019)
pIC50: −log10 of the molar value.

Columns and labels:
ABL1 = ABL1 (Homo sapiens, UniProt P00519); test: HTRF Transcreener ADP kinase assay; assay type: biochemical; settings: for pIC50: HTRF Transcreener ADP assay
Description: (§1) MAP4K4 kinase activity was monitored using the CisBio HTRF Transcreener ADP assay, a competitive immunoassay with a reproducible Z’ > 0.6. In the detection step, endogenous ADP and d2-labeled ADP compete for binding an anti-ADP monoclonal antibody labeled with Eu^3+ cryptate. A ratiometric fluorescent readout is used at 665 and 620 nm. […] Assays were run in Greiner low volume plates with a final reaction volume of 10 μl. Percent inhibition was calculated from 100% activity of MAP4K4 (DMSO only) and 0% activity (no enzyme added). Data were either reported as % inhibition at a single dose or as pIC50 values derived from dose response curves (pIC50 = -log[IC50]).
(§2) Kinase selectivity profiling was performed by the International Centre for Kinase Profiling, MRC Protein Phosphorylation and Ubiquitylation Unit (141 kinases; Premier Screen, http://www.kinase-screen.mrc.ac.uk), using a [γ-^33P]ATP filter binding assay ([Bain et al., 2007]). Compounds were screened at 1 μM. For key hits, pIC50 values were then determined by HTRF as above. More complete kinome profiling was performed by Reaction Biology (376 kinases). Stability in mouse and human liver microsomes was determined by Cyprotex.

Aurora B = molecular target: T1, Aurora B (Homo sapiens, UniProt Q96GD4); test: HTRF Transcreener ADP kinase assay; assay type: biochemical
T1 construct: lines 1-140) and Reaction Biology
Description: as §1, §2

FLT3 = FLT3 (Homo sapiens, UniProt P36888); test: HTRF Transcreener ADP kinase assay; assay type: biochemical
Description: as §1, §2

GCK/MAP4K2 = molecular target: T2, GCK/MAP4K2 (Homo sapiens, UniProt Q12851); test: HTRF Transcreener ADP kinase assay; assay type: biochemical; settings: for pIC50: HTRF Transcreener ADP assay
T2 sequence (Q12851 1-820): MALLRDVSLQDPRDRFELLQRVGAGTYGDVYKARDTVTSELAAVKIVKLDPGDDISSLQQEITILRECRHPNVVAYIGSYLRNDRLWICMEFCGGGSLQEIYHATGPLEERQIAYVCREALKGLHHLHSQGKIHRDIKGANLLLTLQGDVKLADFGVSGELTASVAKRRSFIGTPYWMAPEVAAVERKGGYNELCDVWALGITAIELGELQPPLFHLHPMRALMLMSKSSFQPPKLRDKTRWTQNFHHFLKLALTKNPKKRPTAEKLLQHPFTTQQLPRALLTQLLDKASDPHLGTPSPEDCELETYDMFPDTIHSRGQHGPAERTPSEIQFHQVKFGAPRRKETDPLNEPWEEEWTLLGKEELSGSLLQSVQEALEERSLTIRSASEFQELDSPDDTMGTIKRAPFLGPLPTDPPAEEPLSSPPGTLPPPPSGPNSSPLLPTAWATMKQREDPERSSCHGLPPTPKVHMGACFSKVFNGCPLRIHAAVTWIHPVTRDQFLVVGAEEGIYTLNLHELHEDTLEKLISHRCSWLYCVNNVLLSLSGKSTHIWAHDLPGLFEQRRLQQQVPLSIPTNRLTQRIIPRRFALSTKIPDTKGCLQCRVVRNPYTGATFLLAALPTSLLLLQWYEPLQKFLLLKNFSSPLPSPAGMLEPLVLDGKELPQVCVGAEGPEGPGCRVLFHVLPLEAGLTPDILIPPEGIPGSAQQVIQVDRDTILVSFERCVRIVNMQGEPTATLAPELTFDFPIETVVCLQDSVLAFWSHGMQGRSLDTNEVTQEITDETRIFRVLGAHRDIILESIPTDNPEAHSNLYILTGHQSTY
Description: as §1, §2

GLK/MAP4K3 = molecular target: T3, GLK/MAP4K3 (Homo sapiens, UniProt Q8IVH8); test: HTRF Transcreener ADP kinase assay; assay type: biochemical; settings: for pIC50: HTRF Transcreener ADP assay
T3 sequence (Q8IVH8 1-894): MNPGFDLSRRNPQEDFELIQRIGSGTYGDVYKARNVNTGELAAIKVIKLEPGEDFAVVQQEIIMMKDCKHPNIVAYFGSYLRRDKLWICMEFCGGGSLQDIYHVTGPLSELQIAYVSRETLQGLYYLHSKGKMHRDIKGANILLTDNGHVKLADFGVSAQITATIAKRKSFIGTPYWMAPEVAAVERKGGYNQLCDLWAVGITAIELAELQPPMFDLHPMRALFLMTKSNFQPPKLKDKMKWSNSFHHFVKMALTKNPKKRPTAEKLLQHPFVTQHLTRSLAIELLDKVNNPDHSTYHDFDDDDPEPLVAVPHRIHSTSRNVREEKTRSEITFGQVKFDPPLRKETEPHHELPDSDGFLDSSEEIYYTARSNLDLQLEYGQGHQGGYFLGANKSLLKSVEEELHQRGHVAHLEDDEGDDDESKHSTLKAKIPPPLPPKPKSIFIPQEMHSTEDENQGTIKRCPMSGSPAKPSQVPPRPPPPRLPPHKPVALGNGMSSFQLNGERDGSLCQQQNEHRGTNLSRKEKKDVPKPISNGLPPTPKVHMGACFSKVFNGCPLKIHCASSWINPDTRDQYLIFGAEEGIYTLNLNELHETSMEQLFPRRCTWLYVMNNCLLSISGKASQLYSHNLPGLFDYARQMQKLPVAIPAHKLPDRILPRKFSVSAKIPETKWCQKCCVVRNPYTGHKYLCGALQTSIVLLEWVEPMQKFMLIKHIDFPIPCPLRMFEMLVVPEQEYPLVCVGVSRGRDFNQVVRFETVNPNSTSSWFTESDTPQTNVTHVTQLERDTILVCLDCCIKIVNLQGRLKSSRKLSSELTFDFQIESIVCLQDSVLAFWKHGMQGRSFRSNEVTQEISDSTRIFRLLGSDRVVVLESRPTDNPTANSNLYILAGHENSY
Description: as §1, §2

GSK3β = GSK3β (Homo sapiens, UniProt P49841); test: HTRF Transcreener ADP kinase assay; assay type: biochemical; settings: for pIC50: HTRF Transcreener ADP assay
Description: as §1, §2

KHS/MAP4K5 = KHS/MAP4K5 (Homo sapiens, UniProt Q9Y4K4); test: HTRF Transcreener ADP kinase assay; assay type: biochemical; settings: for pIC50: HTRF Transcreener ADP assay
Description: as §1, §2

MLK1/MAP3K9 = MLK1/MAP3K9 (Homo sapiens, UniProt P80192); test: HTRF Transcreener ADP kinase assay; assay type: biochemical; settings: for pIC50: HTRF Transcreener ADP assay
Description: as §1, §2

MLK3/MAP3K11 = MLK3/MAP3K11 (Homo sapiens, UniProt Q16584); test: HTRF Transcreener ADP kinase assay; assay type: biochemical; settings: for pIC50: HTRF Transcreener ADP assay
Description: as §1, §2

cardiac MAP4K4 = cardiac MAP4K4 (Mus musculus, UniProt P97820); test: Target engagement in vivo (desthiobiotin-ATP probe on cardiac lysates after oral dosing); settings: dose-response and time course
Sequence of cardiac MAP4K4 (P97820 2-310 limits assumed): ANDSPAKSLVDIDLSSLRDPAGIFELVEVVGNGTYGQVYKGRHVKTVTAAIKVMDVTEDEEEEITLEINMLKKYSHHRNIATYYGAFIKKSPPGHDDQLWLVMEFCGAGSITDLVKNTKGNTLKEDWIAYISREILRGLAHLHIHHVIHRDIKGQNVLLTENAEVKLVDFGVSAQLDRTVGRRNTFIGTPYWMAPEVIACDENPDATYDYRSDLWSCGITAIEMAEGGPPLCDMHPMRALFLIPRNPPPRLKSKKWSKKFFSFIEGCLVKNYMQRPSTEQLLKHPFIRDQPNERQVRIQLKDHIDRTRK

Sequence of ABL1 (P00519 whole entry): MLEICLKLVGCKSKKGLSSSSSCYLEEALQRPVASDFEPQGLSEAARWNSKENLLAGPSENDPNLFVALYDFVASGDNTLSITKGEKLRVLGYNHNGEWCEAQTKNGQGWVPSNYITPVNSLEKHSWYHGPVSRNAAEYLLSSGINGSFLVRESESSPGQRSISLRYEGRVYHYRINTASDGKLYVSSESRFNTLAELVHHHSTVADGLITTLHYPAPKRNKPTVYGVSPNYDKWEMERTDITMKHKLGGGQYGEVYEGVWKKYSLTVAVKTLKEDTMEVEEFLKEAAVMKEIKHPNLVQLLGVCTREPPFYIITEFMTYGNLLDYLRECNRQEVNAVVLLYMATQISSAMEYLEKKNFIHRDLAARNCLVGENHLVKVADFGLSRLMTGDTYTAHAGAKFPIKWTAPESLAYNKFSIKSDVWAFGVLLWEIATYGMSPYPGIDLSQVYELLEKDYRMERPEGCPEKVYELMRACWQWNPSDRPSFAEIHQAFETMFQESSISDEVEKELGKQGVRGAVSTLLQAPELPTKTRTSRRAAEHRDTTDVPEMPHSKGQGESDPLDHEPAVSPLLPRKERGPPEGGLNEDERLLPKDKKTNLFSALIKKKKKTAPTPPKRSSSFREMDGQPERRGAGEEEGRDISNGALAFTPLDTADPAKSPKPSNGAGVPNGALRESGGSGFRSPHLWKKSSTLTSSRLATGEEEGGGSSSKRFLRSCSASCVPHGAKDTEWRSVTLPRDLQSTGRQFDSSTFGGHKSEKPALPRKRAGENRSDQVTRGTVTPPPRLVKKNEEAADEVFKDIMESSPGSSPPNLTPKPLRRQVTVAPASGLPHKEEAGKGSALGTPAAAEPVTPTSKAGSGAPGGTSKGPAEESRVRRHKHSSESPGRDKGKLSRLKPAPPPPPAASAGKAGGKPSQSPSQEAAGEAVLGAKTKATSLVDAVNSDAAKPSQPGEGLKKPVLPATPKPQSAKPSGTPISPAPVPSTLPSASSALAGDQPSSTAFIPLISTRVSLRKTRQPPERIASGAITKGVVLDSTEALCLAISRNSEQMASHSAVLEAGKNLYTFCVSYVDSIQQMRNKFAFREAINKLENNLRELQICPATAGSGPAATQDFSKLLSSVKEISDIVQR
Sequence of MLK3/MAP3K11 (Q16584 whole entry): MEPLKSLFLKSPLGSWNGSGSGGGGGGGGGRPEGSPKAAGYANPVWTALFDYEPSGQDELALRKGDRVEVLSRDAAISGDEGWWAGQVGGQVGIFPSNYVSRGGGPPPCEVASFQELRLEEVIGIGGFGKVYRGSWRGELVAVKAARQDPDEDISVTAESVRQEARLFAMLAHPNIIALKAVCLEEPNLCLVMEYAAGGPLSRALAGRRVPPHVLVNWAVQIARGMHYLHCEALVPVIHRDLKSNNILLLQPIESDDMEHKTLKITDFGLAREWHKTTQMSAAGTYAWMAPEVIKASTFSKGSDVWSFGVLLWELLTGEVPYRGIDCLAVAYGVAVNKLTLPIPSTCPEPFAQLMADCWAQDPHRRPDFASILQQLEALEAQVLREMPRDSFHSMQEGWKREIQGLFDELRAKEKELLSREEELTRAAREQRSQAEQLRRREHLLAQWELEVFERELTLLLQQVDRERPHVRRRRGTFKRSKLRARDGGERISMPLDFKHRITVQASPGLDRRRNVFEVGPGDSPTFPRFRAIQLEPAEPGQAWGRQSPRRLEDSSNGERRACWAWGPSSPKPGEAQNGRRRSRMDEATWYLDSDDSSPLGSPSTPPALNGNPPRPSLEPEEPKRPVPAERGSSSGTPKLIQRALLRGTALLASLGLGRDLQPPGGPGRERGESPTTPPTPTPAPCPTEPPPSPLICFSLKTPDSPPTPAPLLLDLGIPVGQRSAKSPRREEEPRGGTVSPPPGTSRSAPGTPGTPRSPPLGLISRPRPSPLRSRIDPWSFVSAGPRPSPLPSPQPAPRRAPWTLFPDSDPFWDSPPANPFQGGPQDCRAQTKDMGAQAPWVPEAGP
Sequence of KHS/MAP4K5 (Q9Y4K4 whole entry): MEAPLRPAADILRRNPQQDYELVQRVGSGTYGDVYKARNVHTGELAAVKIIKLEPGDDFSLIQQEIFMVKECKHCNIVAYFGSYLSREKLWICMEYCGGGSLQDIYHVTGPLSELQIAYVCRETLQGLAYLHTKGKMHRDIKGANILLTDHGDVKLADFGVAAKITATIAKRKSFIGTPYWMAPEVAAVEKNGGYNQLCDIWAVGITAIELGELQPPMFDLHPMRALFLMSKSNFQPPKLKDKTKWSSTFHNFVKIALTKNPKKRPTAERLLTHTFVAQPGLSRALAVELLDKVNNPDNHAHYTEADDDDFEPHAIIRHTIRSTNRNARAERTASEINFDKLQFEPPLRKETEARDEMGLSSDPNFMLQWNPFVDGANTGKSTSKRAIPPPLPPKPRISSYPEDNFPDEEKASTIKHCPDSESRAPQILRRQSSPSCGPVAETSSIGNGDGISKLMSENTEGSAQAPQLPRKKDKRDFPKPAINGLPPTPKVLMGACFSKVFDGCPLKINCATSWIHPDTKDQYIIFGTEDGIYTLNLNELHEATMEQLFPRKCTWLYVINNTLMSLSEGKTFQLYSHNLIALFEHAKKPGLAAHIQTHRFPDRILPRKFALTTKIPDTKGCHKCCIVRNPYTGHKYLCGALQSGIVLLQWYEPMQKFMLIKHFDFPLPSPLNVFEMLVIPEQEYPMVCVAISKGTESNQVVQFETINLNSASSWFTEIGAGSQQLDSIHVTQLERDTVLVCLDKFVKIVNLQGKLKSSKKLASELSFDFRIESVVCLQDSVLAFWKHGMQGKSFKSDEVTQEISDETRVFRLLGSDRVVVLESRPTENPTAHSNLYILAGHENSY
Sequence of MLK1/MAP3K9 (P80192 whole entry): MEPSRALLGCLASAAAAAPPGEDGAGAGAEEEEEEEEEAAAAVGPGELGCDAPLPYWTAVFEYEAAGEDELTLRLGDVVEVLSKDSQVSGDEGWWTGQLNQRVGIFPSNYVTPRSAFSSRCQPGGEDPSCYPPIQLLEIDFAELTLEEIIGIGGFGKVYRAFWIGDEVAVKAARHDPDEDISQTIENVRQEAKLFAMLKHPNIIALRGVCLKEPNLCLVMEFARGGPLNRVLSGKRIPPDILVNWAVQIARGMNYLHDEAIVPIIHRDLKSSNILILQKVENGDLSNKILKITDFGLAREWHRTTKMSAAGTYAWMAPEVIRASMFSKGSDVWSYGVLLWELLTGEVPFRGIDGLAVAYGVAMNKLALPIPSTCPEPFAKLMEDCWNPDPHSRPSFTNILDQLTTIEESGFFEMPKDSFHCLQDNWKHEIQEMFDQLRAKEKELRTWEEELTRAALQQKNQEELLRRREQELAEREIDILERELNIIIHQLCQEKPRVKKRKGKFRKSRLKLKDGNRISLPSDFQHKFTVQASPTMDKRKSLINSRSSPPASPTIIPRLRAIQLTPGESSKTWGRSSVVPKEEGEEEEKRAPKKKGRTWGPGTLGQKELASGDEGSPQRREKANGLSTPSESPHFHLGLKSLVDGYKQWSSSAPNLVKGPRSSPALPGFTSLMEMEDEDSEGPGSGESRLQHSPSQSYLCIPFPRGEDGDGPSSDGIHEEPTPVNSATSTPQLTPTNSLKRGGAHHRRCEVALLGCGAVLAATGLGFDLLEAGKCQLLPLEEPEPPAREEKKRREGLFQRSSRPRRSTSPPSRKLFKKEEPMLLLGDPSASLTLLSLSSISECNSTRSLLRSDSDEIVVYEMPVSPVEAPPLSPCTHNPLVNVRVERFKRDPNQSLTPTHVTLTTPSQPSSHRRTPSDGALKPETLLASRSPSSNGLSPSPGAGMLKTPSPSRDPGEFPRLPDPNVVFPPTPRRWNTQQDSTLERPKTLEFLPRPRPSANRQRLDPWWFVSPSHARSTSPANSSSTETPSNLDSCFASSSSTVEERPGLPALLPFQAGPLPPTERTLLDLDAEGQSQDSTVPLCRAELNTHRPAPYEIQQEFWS
Sequence of GSK3β (P49841 whole entry): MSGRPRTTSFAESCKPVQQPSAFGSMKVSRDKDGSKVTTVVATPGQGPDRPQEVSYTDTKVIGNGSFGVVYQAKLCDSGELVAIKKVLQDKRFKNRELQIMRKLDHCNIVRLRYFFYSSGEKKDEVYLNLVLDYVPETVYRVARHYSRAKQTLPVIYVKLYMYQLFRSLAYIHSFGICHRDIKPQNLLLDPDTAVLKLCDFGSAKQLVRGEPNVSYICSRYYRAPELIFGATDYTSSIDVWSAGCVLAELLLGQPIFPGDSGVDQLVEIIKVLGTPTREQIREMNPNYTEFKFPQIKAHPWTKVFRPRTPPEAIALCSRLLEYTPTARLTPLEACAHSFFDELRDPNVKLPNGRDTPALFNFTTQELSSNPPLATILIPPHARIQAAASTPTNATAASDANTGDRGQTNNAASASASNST
T1 sequence (Q96GD4 whole entry): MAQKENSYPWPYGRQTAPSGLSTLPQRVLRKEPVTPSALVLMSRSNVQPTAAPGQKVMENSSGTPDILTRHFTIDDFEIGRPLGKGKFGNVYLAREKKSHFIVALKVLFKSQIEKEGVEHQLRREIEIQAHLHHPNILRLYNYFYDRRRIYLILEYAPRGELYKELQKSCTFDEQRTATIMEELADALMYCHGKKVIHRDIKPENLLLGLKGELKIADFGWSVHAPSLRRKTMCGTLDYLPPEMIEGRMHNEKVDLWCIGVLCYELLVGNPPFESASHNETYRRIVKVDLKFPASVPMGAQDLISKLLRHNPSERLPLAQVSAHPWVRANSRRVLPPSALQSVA

Q: Oc1ncnc2c1c(-c1ccccc1)cn2-c1ccccc1 [F1386-0303, 5,7-diphenyl-7H-pyrrolo[2,3-d]pyrimidin-4-ol] was tested. Which pIC50 (ABL1; ABL1) did it give?
A: 4.52

Q: And the pIC50 (Aurora B; HTRF Transcreener ADP assay)?
A: 4.88

Q: And the pIC50 (FLT3; HTRF Transcreener ADP assay)?
A: 5.66

Q: What about the pIC50 (GCK/MAP4K2; GCK/MAP4K2) of the same compound?
A: 5.91

Q: What about the pIC50 (GLK/MAP4K3; GLK/MAP4K3) of the same compound?
A: 4.52

Q: And the pIC50 (GSK3β; GSK3β)?
A: 4.57

Q: And the pIC50 (KHS/MAP4K5; KHS/MAP4K5)?
A: 5.22

Q: And the pIC50 (MLK1/MAP3K9; MLK1/MAP3K9)?
A: 6.28

Q: And the pIC50 (MLK3/MAP3K11; MLK3/MAP3K11)?
A: 6.09

Q: What does the source list for COCCOc1ccc(-c2cn(-c3ccccc3)c3nc[nH]c(=O)c23)cc1 [DMX-5804, 5-[4-(2-methoxy-ethoxy)-phenyl]-7-phenyl-3,7-dihydro-pyrrolo[2,3-d]pyrimidin-4-one]?
A: pIC50 (ABL1; ABL1): 5.80; Fold Selectivity (ABL1; ABL1 versus MAP4K4): 560; DMX-5804 vs F1386-0303 (ABL1; ratio of fold selectivity, ABL1): 0.65; DMX-5804 vs F1386-0303 (Aurora B; ratio of fold selectivity): 1.47; DMX-5804 vs F1386-0303 (FLT3; ratio of fold selectivity): 18.22; pIC50 (GCK/MAP4K2; GCK/MAP4K2): 6.50; Fold Selectivity (GCK/MAP4K2; GCK/MAP4K2 versus MAP4K4): 112; DMX-5804 vs F1386-0303 (GCK/MAP4K2; ratio of fold selectivity, GCK/MAP4K2): 3.20; pIC50 (GLK/MAP4K3; GLK/MAP4K3): 4.95; Fold Selectivity (GLK/MAP4K3; GLK/MAP4K3 versus MAP4K4): 3981; DMX-5804 vs F1386-0303 (GLK/MAP4K3; ratio of fold selectivity, GLK/MAP4K3): 4.57; Fold Selectivity (GSK3β; GSK3β versus MAP4K4): 7762; pIC50 (GSK3β; GSK3β): 4.66; DMX-5804 vs F1386-0303 (GSK3β; ratio of fold selectivity, GSK3β): 10.00; pIC50 (KHS/MAP4K5; KHS/MAP4K5): 6.36; Fold Selectivity (KHS/MAP4K5; KHS/MAP4K5 versus MAP4K4): 153; DMX-5804 vs F1386-0303 (KHS/MAP4K5; ratio of fold selectivity, KHS/MAP4K5): 0.88; pIC50 (MLK1/MAP3K9; MLK1/MAP3K9): 7.19; Fold Selectivity (MLK1/MAP3K9; MLK1/MAP3K9 versus MAP4K4): 23; DMX-5804 vs F1386-0303 (MLK1/MAP3K9; ratio of fold selectivity, MLK1/MAP3K9): 1.53; pIC50 (MLK3/MAP3K11; MLK3/MAP3K11): 6.99; Fold Selectivity (MLK3/MAP3K11; MLK3/MAP3K11 versus MAP4K4): 36; DMX-5804 vs F1386-0303 (MLK3/MAP3K11; ratio of fold selectivity, MLK3/MAP3K11): 1.57; inhibition of ATP binding to cardiac MAP4K4 in vivo (cardiac MAP4K4): substantiated
